“Also recorded” adds a separate entry of the source.
Assays:
[1] = L-ergothioneine concentration in plasma of human subjects; assay type: in vivo; settings: 20 mg capsule daily for four weeks, week 4 vs pre-examination and control food group, FIG. 20
Description: (§1) In order to examine a sleep improving effect such as a sleep quality-improving effect of a supplement containing ergothioneine, male and female adults feeling stressed on a daily basis and dissatisfied with their sleep (test food group: 46 subjects; control food group: 46 subjects; 92 subjects in total) were subjected to a placebo-controlled, randomized, double-blind, parallel-group comparative study in which one capsule containing 20 mg of L-ergothioneine (test food) or one capsule not containing L-ergothioneine (control food) was ingested daily for four weeks. The sleep quality and sleep duration were evaluated by measuring brain waves during sleep using an electroencephalograph “SLEEPSCOPE” (product name) available from SleepWell Co., Ltd. A 2-sample t-test (**: p<0.01, *: p<0.05, t: p<0.1, vs. control food group) was performed for significance testing between the groups.
(§2) Brain waves during sleep were measured before the start of ingestion of the food for evaluation (pre-test) and after four weeks of ingestion of the food. The pre-test measurement of brain waves was regarded as “pre-examination”, and the measurement of brain waves after four weeks of ingestion of the food for evaluation was regarded as “week 4 examination”. The L-ergothioneine concentration (μM) in blood of each subject was also measured at the pre-examination and at the week 4 examination.

Sprague-Dawley (SD) rat = experiment: Stress sleep disorder model, brain waves during sleep; assay type: in vivo; settings: stress-induced rats, oral about 20 mg per 1 kg body weight per day
Description: The following method was used to induce stress in rats in an ergothioneine administration group (N=5) and a non-administration group (N=7). During the test period, the rats were kept under a 12-hour light-dark cycle. A Sprague-Dawley (SD) rat (8 weeks of age) was introduced into a cage where a larger and highly aggressive Brown-Norway (BN) rat was kept. These two rats were housed together for 10 minutes to make sure contact (direct contact) between the rats as the BN rat chasing after or hovering over the SD rat. Then, the SD rat and the BN rat were kept together for 24 hours in a breeding cage having compartments separated by a transparent perforated partition (indirect contact). Stress was induced in the SD rat in the same manner on the following day. A BM rat different from the one on the preceding day was used as a stressor. Stress was induced once a day for five consecutive days (from Monday to Friday), and then only indirect contact was allowed for two days on the weekend. This process was repeated for two cycles. Thus, stress induction under conditions combining direct contact and indirect contact was performed 10 times in total, and stress was induced for 12 days in total. The ergothioneine administration group was orally administered with L-ergothioneine from seven days before stress induction to the end of stress induction. L-ergothioneine was used in the form of an aqueous solution of L-ergothioneine dissolved in water (L-ergothioneine concentration: 0.25 mg/mL). The dosage of L-ergothioneine was about 20 mg per 1 kg body weight per day. The non-administration group was orally administered with water instead of the aqueous L-ergothioneine solution. The control (stress (−)) group (N=4) was orally administered with water without the stress induction. Electrodes were implanted in the rats to record brain waves, and brain waves during sleep and wakefulness were recorded for 24 hours after the end of stress induction. NREM sleep, REM sleep, and awake state were determined from the brain waves using biological signal analysis software Spike2 (available from CED), and the duration of episode of each of these states was calculated. Tukey's multiple comparisons test (*: p<0.05, **: p<0.005, ****: p<0.0001) was performed for significance testing.

[2] = tested on: male and female adults feeling stressed on a daily basis and dissatisfied with their sleep; experiment: Sleep quality evaluation test for humans (electroencephalograph SLEEPSCOPE); assay type: in vivo, human; settings: 20 mg capsule daily for four weeks
Description: as §1
Two types of food indistinguishable in terms of appearance, flavor, and the like were used for evaluation. • Test food: capsule containing a test substance (L-ergothioneine 20 mg) • Control food: capsule not containing a test substance
Each type of food for evaluation contained raw materials such as dextrin, hydroxypropyl cellulose, carrageenan, potassium chloride, and titanium oxide, in addition to the test substance. The control food was produced using the same raw materials used in the test food, except that the test substance (L-ergothioneine) was not added.
as §2
NREM sleep is divided into three stages 1 to 3 according to sleep depth by measuring brain waves using an electroencephalograph “SLEEPSCOPE” available from SleepWell Co., Ltd.
Ratio (%) of each sleep stage (NREM sleep stage 1, 2, or 3) to total sleep time; number of wake after sleep onset (frequency); number of wake after sleep onset in two hours before waking up (frequency), NREM sleep latency (min); 5 power in the first sleep cycle (delta power during NREM sleep in the first sleep cycle) (μV^2); and sleep efficiency (%).
FIGS. 4 to 19 show results of main evaluation items for sleep quality (ratio of total time of each sleep stage to total sleep time; number of wake after sleep onset; number of wake after sleep onset in two hours before waking up; NREM sleep latency; 5 (delta) power in the first sleep cycle, and sleep efficiency) and sleep duration, as determined by measuring brain waves. FIGS. 4 to 19 show the measured values and the amount of change between measurements at the pre-examination and at the week 4 examination (**: p<0.01, *: p<0.05, †: p<0.1, vs. control food group). The amount of change is a value obtained by subtracting the measured value at the pre-examination from the measured value at the week 4 examination (“measured value at week 4 examination”−“measured value at pre-examination”). The results shown in FIG. 4 to FIG. 20 are presented in means±standard error for each group. A 2-sample t-test (**: p<0.01, *: p<0.05, †: p<0.1, vs. control food group) was performed for significance testing between the groups. In FIG. 4, FIG. 5, FIG. 6, FIG. 8, FIG. 10, FIG. 12, FIG. 14, FIG. 16, FIG. 18, and FIG. 20, “Pre.” refers to the pre-examination, and “Post.” refers to the week 4 examination. The solid lines represent the test food group, and the dashed lines represent the control food group. In FIG. 7, FIG. 9, FIG. 11, FIG. 13, FIG. 15, FIG. 17, and FIG. 19, the black bars represent the test food group, and the white bars represent the control food group.

[3] = light phase, vs non-administration group, FIG. 1

C[N+](C)(C)[C@@H](Cc1c[nH]c(=S)[nH]1)C(=O)[O-] [L-ergothioneine]
L-ergothioneine concentration in plasma [1]: increased the L-ergothioneine concentration in plasma
fragmentation in REM sleep (number of sleep fragmentation episodes) (Sprague-Dawley (SD) rat; light phase, FIG. 2): reduced fragmentation to a level comparable to that of the control group
duration of episode of NREM sleep (NREM) (Sprague-Dawley (SD) rat; [3]): improved these phenomena to the level of the control group without stress induction
duration of episode of REM sleep (REM) (Sprague-Dawley (SD) rat; [3]): improved these phenomena to the level of the control group without stress induction
ratio of NREM sleep duration to total sleep time (Sprague-Dawley (SD) rat): increased the ratio of NREM sleep duration to total sleep time
sleep latency (latency from the start of the light phase to the first episode of NREM sleep) (Sprague-Dawley (SD) rat; FIG. 3): to a level comparable to that of control group without stress induction; also recorded: exhibited an action to reduce an increase in sleep latency
number and duration of wake after sleep onset [2]: reduced the number and duration of wake after sleep onset
ratio of NREM sleep duration (total of stages 1 to 3) to total sleep time ([2]; vs control food group): increased the ratio of NREM sleep duration to total sleep time
sleep latency ([2]; vs control food group): showed a reduced sleep latency, compared to the control food group
ratio of NREM sleep stage 1 (N1) to total sleep time ([2]; vs control food group, FIG. 4, 7): significantly suppressed
number of wake after sleep onset ([2]; vs control food group, FIG. 8, 9): significantly suppressed sleep fragmentation
number of wake after sleep onset in two hours before waking up ([2]; vs control food group, FIG. 10, 11): significantly suppressed sleep fragmentation
NREM sleep latency (time to reach deep sleep) ([2]; vs control food group, FIG. 12, 13): reduced an increase in time to reach deep sleep
5 power in the first sleep cycle ([2]; vs control food group, FIG. 14, 15): increased 5 power in the first sleep cycle
sleep efficiency ([2]; vs control food group, FIG. 16, 17): increased sleep efficiency
sleep duration ([2]; vs control food group, FIG. 18, 19): increased sleep duration
